Results on 1 molecule are retold here after patent publication US3976672A, “(Hydrocarbylphenylsulfonyl)alkyltrimethylstannanes” (priority 1975, dated 1976).

Each structure is given as a SMILES string.

The data set in a line: Thermal stability on distillation. The format is physicochemical. The following applies: at the temperature required to distill the starting sulfone. As for the experimental part: The pot residue, a black brittle glass when cooled, weighed 16.2 g. The cuts were analyzed by (glpc) gas-liquid phase chromatography using a 6 feet × 1/8 inch column packed with 10% of silicone gum rubber on silanized diatomaceous earth at a column temperature of 260° C. […] There also was a more volatile component which increased in amount in each successive cut. The latter observation accompanied by a gradual loss in vacuum is usually associated with some thermal decomposition. Cuts No. 2 and No. 3 were combined for a second distillation using a vacuum jacketed vigreaux column. One cut was obtained, b.p. 43°-125° C. […] The vigreaux column was replaced by a short-path head and a third distillation was run on the pot residue. The following cuts were taken:
A sample of Cut No. 1 was analyzed by nuclear magnetic resonance spectroscopy (NMR). […] In summary, the product could only be obtained as a mixture with the starting sulfone despite three distillation attempts to separate the mixture.

Regarding `CC(C)(C)c1ccc(S(=O)(=O)[CH2][Sn]([CH3])([CH3])[CH3])cc1` [4-t-butylphenylsulfonylmethyltrimethylstannane], the thermal instability entry is “thermal instability of the product at the temperature required to distill the starting sulfone”.
